# Data published in patent US6784155B1, “Inhibitor and stimulator of stem cell proliferation and uses thereof” (Wellstat Therapeutics Corporation, priority 1996, dated 2004).
# No end group written: not given here. *: point of attachment. Biotin = O=C1N[C@H]2[C@H](CS[C@H]2CCCCC(=O)*)N1; C4 linker = not defined here
# B1: Human Myoglobin: human myoglobin (protein, UniProt P02144 2-154, looked up)
# Myoglobin: GLSDGEWQLVLNVWGKVEADIPGHGQEVLIRLFKGHPETLEKFDKFKHLKSEDEMKASEDLKKHGATVLTALGGILKKKGHHEAEIKPLAQSHATKHKIPVKYLEFISECIIQVLQSKHPGDFGADAQGAMNKALELFRKDMASNYKELGFQG
# How the values were obtained:
# CFU-MIX [1] = experiment: CFU-MIX cycling assay in vitro (Ara C kill); assay type: cell-based, mouse
# Protocol: A similar assay can be performed in vitro, using the cycling status of CFU-MIX instead of CFU-S. The assay is performed as described above for the CFU-S assay except that cytosine arabinoside (Ara C, 30 micrograms/ml) is used as the cycle-specific toxic agent instead of high dose tritiated thymidine (see B. I. Lord in Haemopoiesis—A Practical Approach, N. G. Testa and G. Molineux (Eds.), IRL Press 1993; Pragnell et al. in Culture of Hematopoietic Cells, R. I. Freshney, I. B. Pragnell and M. G. Freshney (Eds.), Wiley Liss 1994) and a mouse strain with high endogenous cycling rates (Balb/c) is used instead of testosterone-treated BDFI mice.
# (§1) 24 hours later (Day 1), varying doses of peptide 43-55 or vehicle were injected i.v. Bone marrow was harvested on Day 2 and the […] cycling assay conducted as in Example 14. Specifically, mice were sacrificed and single cell bone marrow suspensions prepared from the femurs. The cells were washed once and the concentration adjusted to 5×10^6 cells/ml in Fischer medium. For each test condition, one milliliter of cells was added to each of two polypropylene tubes. The tubes were incubated at 37° C. for 3 hours without (“Control”) or with (“Experimental”) the appropriate concentration of test substance. At the end of the incubation, 30 μg/ml of cytosine arabinoside (“Ara C” (Sigma)) was added to half of the tubes and the same volume of Fischer's medium was added to the others. The tubes were incubated for a further 1 hour at 37° C., after which they were placed on ice and washed twice with cold Fischer medium.
# (§2) The cells were readjusted to 5×10^4-10^6/ml in Fischer's medium and 0.5 ml of cell suspension added to 5 ml of Methocult M3430 methylcellulose medium (Stem Cell Technologies, Vancouver, British Columbia). The mixture was vigorously mixed with a vortex and 1 ml was dispensed into each of five 35 mm dishes. The 35 mm dishes were in turn placed in a covered 150 mm dish with one open 35 mm dish containing sterile water. CFU-MIX colonies were counted with the use of an inverted microscope after 7 days of incubation at 37° C.
# Differences in colony number between the tubes treated with medium versus the tubes treated with Ara C represent the percentage of cells in cycle under that condition according to the formula:
# a=Number of CFU-MIX from tube incubated with medium alone
# b=Number of CFU-MIX from tube incubated with Ara C
# CFU-MIX [2] = experiment: Stimulation of cycling of quiescent murine stem cells, CFU-MIX cycling assay in vitro; assay type: cell-based, mouse
# Protocol: Microgram per milliliter doses of hemoglobin chains, myoglobin and peptides were assayed for stimulation of quiescent stem cells. Bone marrow was obtained from untreated B6D2F1 tested in the CFU-MIX cycling assay as in Example 24. Stem cells isolated from untreated B6D2F1 mice are normally slowly cycling unless stimulated (e.g. by testosterone propionate (cf. Example 1) or chemotherapy such as 5FU (cf. Example 4)) to enter into cycle.
# CFU-GEMM [3] = experiment: CFU-GEMM cycling assay, mobilized human peripheral blood; assay type: cell-based
# Protocol: Peripheral blood was obtained from breast cancer patients undergoing peripheral stem cell mobilization with cyclophosphamide and G-CSF according to standard protocols. Red blood cells were removed with FicolU Hypaque (cells were diluted 1:1 with IMDM and 20 ml layered on top of 16 ml Ficoll and centrifuged at 800 g for 30 minutes; mononuclear cells were removed from the interphase and washed twice in IMDM). In one case mononuclear cells were stored frozen in liquid nitrogen before assay. The mononuclear cells were plated for the CFU-GEMM cycling assay as in Example 26 except that 2.5-5×10^5 cells were plated per dish.
# CFU-GEMM [4] = experiment: CFU-GEMM cycling assay, human umbilical cord blood cells; assay type: cell-based; settings: Table 32, cord blood mononuclear cells
# Protocol: In order to investigate the ability of purified INPROL from porcine bone marrow to affect cycling on human progenitors, umbilical cord blood cells were obtained. Either the total mononuclear cell fraction obtained after separation on Ficoll or the CD34^+ fraction obtained after fractionation on anti-CD34 affinity columns (CellPro Inc.) was used. Cells were incubated for 48 hours in vitro in the presence of interleukin 3 (IL-3) and stem cell factor (SCF) (100 ng/ml each) in order to ensure that the early stem cells were in cycle. After this preincubation, cycling assays were conducted as described in Example 14 for the mouse except that CFU-GEMM (instead of CFU-MIX) were counted on Day 18 after plating.
# The human cord blood CFU-GEMM cycling assay was conducted as in Example 19. Specifically, mononuclear cells were isolated from human umbilical cord blood cells and adjusted to 24×10^4 cells/ml in IMDM tissue culture medium supplemented with 10% FBS, 100 ng/ml kit ligand and 100 ng/ml human IL-3. The cells were incubated for 48 hours at 37° C.
# After incubation, cells were washed and resuspended in serun-free NDM at a concentration of 10^6 cells/ml. One ml of cells was added to each of two polypropylene tubes per condition and the cycling assay conducted as in Example 24 for mouse bone marrow. After the Ara C incubation cells were washed with cold NDM and adjusted to 10,000 to 20,000 cells per 0.5 ml IMDM and mixed with 5 ml Methocult H4433 (Stem Cell Technologies). Alternatively, Methocult H4435 methylcellulose medium (Stem Cell Technologies) was used in which case the cell concentration was adjusted to 2500-5000 cells per 0.5 ml IMDM. The cells were plated as in Example 24 and CFU-GEMM colonies scored on days 14-18.
# CFU-MIX [5] = experiment: CFU-MIX cycling assay after in vivo injection into testosterone or 5FU treated mice; parameters: species or system mouse
# Protocol: In order to test the ability of purified porcine hemoglobin chains to act in vivo, BDF1 mice were injected with testosterone propionate as described in Example 1. Twenty four hours later, mice received 500 ng of either pINPROL, porcine hemoglobin alpha chain (purified from peripheral red blood cells as in FIG. 21), porcine beta chain (purified from peripheral red blood cells as in FIG. 21) or the equivalent volume of carrier intravenously. Forty eight hours later the bone marrow from each mouse was harvested and the CFU-MIX assay conducted as described in Example 14.
# To assess the stem cell inhibitory activity of peptide 43-55 in vivo, B6D2 F1 mice were pre-treated with testosterone propionate as described in Example 1 or with 5FU. Specifically, testosterone propionate (100 mg/kg body weight) was injected i.p. on Day 0 into mice. Alternatively, mice were injected on Day 0 with 5FU ([…] body weight).
# as §1, §2
# Differences in colony number between the tubes treated with medium versus the tubes treated with Ara C represent the percentage of cells in cycle under that condition according to the formula: […]
# [6] = Table 39, untreated B6D2F1 bone marrow, 10^−3M
# [7] = Table 39, untreated B6D2F1 bone marrow, 10^−5M
# [8] = Table 26, Balb/c bone marrow, 10^−5M
# [9] = Table 26, Balb/c bone marrow, 10^−7M
# [10] = Table 26, Balb/c bone marrow, 10^−9M
# [11] = Table 13, bone marrow from Balb/c mice, 100 ng/ml
# [12] = Table 38, untreated B6D2F1 bone marrow, concentration printed only as (μg/ml)
# [13] = Table 9, bone marrow from Balb/c mice, 100 ng/ml
# [14] = Table 10, testosterone-treated BDF1 mice, 500 ng intravenously (footnote: 100 ng/ml), marrow 48 hours later
molecule,measurement,setting,value
"1-94 fragment: purified formic-acid cleaved fragment, amino acids 1-94 of human alpha hemoglobin chain",% Kill,"CFU-MIX [1]; Table 20, Balb/c bone marrow, 100 ng/ml",0%
"CC(C)C[C@@H](NC(=O)[C@H](Cc1ccccc1)NC(=O)CNC(=O)[C@@H](C)NC(=O)[C@@H](N)Cc1ccc(O)cc1)C(=O)O [DADLE, reference compound]",% Kill,CFU-MIX [2]; [6],0%
same,% Kill,CFU-MIX [2]; [7],0%
"C[C@@H](NC(=O)[C@@H](N)Cc1ccc(O)cc1)C(=O)NCC(=O)N(C)[C@@H](Cc1ccccc1)C(=O)NCCO [DAMGO, (D-Ala^2,N-Me-Phe^4,Gly-ol^5)-Enkephalin, reference compound]",% Kill,CFU-MIX [1]; [8],15%
same,% Kill,CFU-MIX [1]; [9],0%
same,% Kill,CFU-MIX [1]; [10],38%
same,% Kill,"CFU-GEMM [3]; Table 35, Patient #2, 10^−7M",15%
same,% Kill,"CFU-GEMM [3]; Table 35, Patient #2, 10^−9M",0%
"CN1CC[C@]23c4c5ccc(O)c4O[C@H]2[C@@H](O)C=C[C@H]3[C@H]1C5 [Morphine, morphine, reference compound]",% Kill,"CFU-MIX [1]; Table 25, Balb/c bone marrow, 10^−7M",10%
same,% Kill,"CFU-MIX [1]; Table 25, Balb/c bone marrow, 10^−9M",15%
same,% Kill,"CFU-MIX [1]; Table 25, Balb/c bone marrow, 10^−11M",32%
same,% Kill,"CFU-GEMM [3]; Table 35, Patient #2, 10^−7M",24%
same,% Kill,"CFU-GEMM [3]; Table 35, Patient #2, 10^−9M",0%
"C=CCN1CC[C@]23c4c5ccc(O)c4O[C@H]2C(=O)CC[C@@]3(O)[C@H]1C5 [Naloxone, naloxone, reference compound]",effect of naloxone itself on the assay,CFU-MIX [1]; 10^−5-10^−7M,no effect
same,% Kill,"CFU-MIX [1]; Table 28, naloxone alone, 10^−5M final concentration",36%
same,% Kill,"CFU-MIX [1]; Table 30, 10^−10M",0%
"(D-Arg^2, Lys^4)-Dermorphin-(1-4)-amide [DALDA, reference compound]",% Kill,CFU-MIX [1]; [8],47%
same,% Kill,CFU-MIX [1]; [9],0%
same,% Kill,CFU-MIX [1]; [10],34%
same,% Kill,CFU-MIX [2]; [6],41%
same,% Kill,CFU-MIX [2]; [7],24%
Biotinylated alpha chain: human hemoglobin alpha chain from hemoglobin treated with NHS LC Biotin,% Kill,CFU-MIX [1]; [11],7%
Biotinylated beta chain: human hemoglobin beta chain from hemoglobin treated with NHS LC Biotin,% Kill,CFU-MIX [1]; [11],25%
"Biotinylated peptide 43-55: Peptide 43-55 with biotin linked via a C4 carbon linker to the N-terminal NH2 of Phe43 ({Biotin-C4 linker}-FPHFDLSHGSAQV; reading uncertain; UniProt P69905 44-56, looked up, fragment)",% Kill,"CFU-MIX [1]; Table 24, 1 ng/ml",15%
"DALTNAVAHVDDMPNALSA [Peptide 64-82, amino acids 64-82 of human alpha hemoglobin]",% Kill,"CFU-MIX [1]; Table 18, 100 ng/ml",9%
same,% Kill,"CFU-MIX [2]; Table 42, untreated B6D2F1 bone marrow, 1 μg/ml",25%
same,% Kill,CFU-GEMM [4]; 1 ng/ml,21%
same,% Kill,CFU-GEMM [4]; 10 ng,20%
same,% Kill,CFU-GEMM [4]; 100 ng/ml,39%
"H-D-Phe-Cys-Tyr-D-Trp-Orn-Thr-Pen-Thr-NH2 [CTOP, reference compound]",effect of CTOP itself on the assay,CFU-MIX [1]; 10^−7 M,no effect
same,% Kill,"CFU-MIX [1]; Table 31, CTOP alone, 10^−7M final concentration",36%
Human beta chain: purified human hemoglobin beta chain,% Kill,"CFU-MIX [1]; Table 11, bone marrow from Balb/c mice, 100 ng/ml",41%
same,% Kill,CFU-MIX [1]; [11],55%
same,% Kill,CFU-MIX [2]; [12],55%
Human delta chain: purified human hemoglobin delta chain,% Kill,"CFU-MIX [1]; Table 12, bone marrow from Balb/c mice, 100 ng/ml",−4%
same,% Kill,"CFU-MIX [1]; Table 29, 100 ng/ml, alone",10%
Human hemoglobin: human hemoglobin,% Kill,"CFU-MIX [5]; Table 14, testosterone-treated BDF1 mice, 500 ng/mouse",−31%
"Leu-Val-Val-Tyr-Pro-Trp-Thr-Gln-Arg-Phe (LVVYPWTQRF; printed: Leu-Val-Val-Tyr-Pro-Trp-Thr-Gln-Arg-Phe) [Hemorphin 10, reference compound]",% Kill,"CFU-MIX [1]; Table 18, 100 ng/ml",1%
same,% Kill,"CFU-MIX [1]; Table 28, 100 ng/ml, alone",0%
Porcine alpha chain: porcine hemoglobin alpha chain purified from peripheral red blood cells as in FIG. 21,% Kill,CFU-MIX [1]; [13],−4%
same,% Kill,CFU-MIX [5]; [14],5%
Porcine beta chain: porcine hemoglobin beta chain purified from peripheral red blood cells as in FIG. 21,% Kill,CFU-MIX [1]; [13],−14%
same,% Kill,CFU-MIX [5]; [14],−5%
"VVYPWTQR [Hemorphin 7, reference compound]",% Kill,"CFU-MIX [1]; Table 18, 100 ng/ml",0%
B1,"stem cell inhibitory activity, in words",CFU-MIX [1]; CFU-MIX cycling assay,inactive
same,% Kill,CFU-MIX [2]; [12],30%
